For experiment [1], the system named is HL-60/TX1000. The experiment in a line: In vitro anti-cancer activity against multi-drug resistant cancer cells, MTS assay. It is filed as cell-based. The settings on record: Homo sapiens, HL60/TX1000; HL-60/TX1000, Table 2; read-out: IC50. The method, then: (§1) The cell lines were maintained in RPMI1640(GIBCO) supplemented with 10% FCS, 100 units/ml penicillin, 100 ug/ml streptomycin, and 2 mM L-glutamine. The cells were split every third day and diluted to a concentration of 2×10^5 cells/ml one day before experiment. All experiments were performed on exponentially growing cell culture. Cell densities were 2.5×10^4 cells/ml in all experiment.
(§2) A stock solution of Compound (1) was prepared by dissolving the compound at a concentration of 1 mM in 100% DMSO. Final concentrations were obtained by diluting the stock solution directly into the tissue culture medium. Cells were incubated with varying concentrations of the compounds for 72 hours and the IC50 was determined by MTS (i.e. […]) assay. IC50 stands for the concentration of compound required to inhibit 50% tumor cell growth.
(§3) In vitro activity was determined in two MDR (Multi Drug Resistant) human cancer cell lines. HL-60/TX1000 was isolated in vitro by subculturing HL-60 in progressively higher concentration of Taxol. HL-60/TX1000 cells over-express mdr-1 mRNA and p-glycoprotein, as determined by western blot and immunofluorescence labeling with antiPGP antibodies. The cell is cross-resistant to Taxol, Vincristine, Adriamycin, Etoposide and Doxorubicin. MES-SA/Dx5 was established in the presence of increasing concentrations of Doxorubicin. […] MES-SA/Dx5 was purchased from ATCC.
(§4) The procedure for culturing the cells and assaying cancer cell growth inhibition were as described in Example 12.
(§5) The protocol described in Examples 12-13 was used to assay inhibition by Compound (2)-(12) on the growth of the multidrug resistant cancer cell line MES-SA/DX5 and HL-60/TX1000.
For orientation: Tetrazolium assays rely on reduction of a dye to a coloured formazan, in cell work by metabolically active cells.

The subject of experiment [2] is MES-SA/DX5. Described as above. It is filed as cell-based. The settings on record: Homo sapiens, MES-SA/Dx5; MES-SA/DX-5, Table 2; read-out: IC50. The method, then:
as §1, §2, §3, §4, §5

Experiment [3] has as its system seven cancer cell lines. The experiment is described as follows: In vitro anti-cancer activity, summary over seven cancer cell lines. The class given is cell-based. The settings on record: range over the seven cell lines of Table 1; read-out: IC50 against seven cancer cell lines. The procedure:
(§6) The in vitro activity of the compounds was determined in the following seven human cancer cell lines. MDA435 (human breast cancer), MIP10 (human colon cancer), HL-60 (human myeloid leukemia), U937 (human leukemia), p388 (murine leukemia), DU-145 (human prostate cancer), MES-SA (human uterine sarcoma) were obtained from ATCC (American Type of Culture Collection).
as §1, §2

Experiment [4] concerns MDR cell lines (MES-SA/DX5, HL-60/TX1000). The experiment is described as follows: In vitro anti-cancer activity, summary over both MDR cell lines. It is filed as cell-based, human. The settings on record: MES-SA/DX5 and HL-60/TX1000, in words. The procedure: as §1, §2
In vitro activity was determined in two MDR (Multi Drug Resistant) human cancer cell lines. HL-60/TX1000 was isolated in vitro by subculturing HL-60 in progressively higher concentration of Taxol. HL-60/TX1000 cells over-express mdr-1 mRNA and p-glycoprotein, as determined by western blot and immunofluorescence labeling with antiPGP antibodies. The cell is cross-resistant to Taxol, Vincristine, Adriamycin, Etoposide and Doxorubicin. […]

The subject of experiment [5] is DU-145. The experiment in a line: In vitro anti-cancer activity, MTS assay, 72 hours. The class given is cell-based. The settings on record: Homo sapiens, DU-145, 72 hours. The method, then: as §6, §1, §2
Experiment [6] deals with H2. The experiment is described as follows: In vitro anti-cancer activity, MTS assay, 72 hours. The class given is cell-based. The settings on record: Homo sapiens, H2, 72 hours. The method, then:
as §6, §1, §2

For experiment [7], the system named is HL-60. The experiment in a line: In vitro anti-cancer activity, MTS assay, 72 hours. The settings on record: Homo sapiens, HL-60, 72 hours. The class given is cell-based. The procedure: as §6, §1, §2
For experiment [8], the system named is MDA-435. The experiment is described as follows: In vitro anti-cancer activity, MTS assay, 72 hours. It is filed as cell-based. The settings on record: Homo sapiens, MDA435, MDA-435, 72 hours. The procedure: as §6, §1, §2
Experiment [9] concerns MES-SA. The experiment is described as follows: In vitro anti-cancer activity, MTS assay, 72 hours. It is filed as cell-based. The settings on record: Homo sapiens. The method, then: as §6, §1, §2
Experiment [10] has as its system A549. The experiment is described as follows: In vitro anti-cancer activity, MTS assay, 72 hours. It is filed as cell-based. The settings on record: Homo sapiens, A549, 72 hours.
Experiment [11] concerns p388. The experiment in a line: In vitro anti-cancer activity, MTS assay, 72 hours. The class given is cell-based, murine. The settings on record: Mus musculus, p388, 72 hours. The procedure:
as §6, §1, §2

The structures appear in SMILES notation.

For `O=C(c1nc2cnccc2[nH]1)c1cn(Cc2ccc(Cl)cc2)c2ccccc12` [Compound (1)], the IC50 in experiment [1] is 50 nM; in experiment [2] it was 50 nM; in experiment [3], 10 to 50 nM; in experiment [5] it was 50 nM; in experiment [6], 50 nM; in experiment [7], 50 nM. For the same molecule, the IC50 is 50 nM in experiment [8], 10 nM in experiment [9], 50 nM in experiment [10] and 50 nM in [11]. In addition, in [4], the “anti-cancer activity against MDR cancer cell lines” value is reported as “high anti-cancer activity”.

One may read the IC50 as the concentration that gives 50% inhibition.

The values above are taken from patent publication US20040186129A1, “2-Aroylimidazole compounds for treating cancer” (priority 2001, published 2004).
